From the NIST ThermoML archive (doi:10.1016/j.jct.2009.01.014)

Details: for molar entropy: 101.33 kPa, Crystal 1, Vacuum adiabatic calorimetry

[Al+3].[Al+3].[Co+2].[O-2].[O-2].[O-2].[O-2] [aluminium cobalt oxide]
Details | Triple point temperature [K] | molar entropy [J/K/mol]
15 K | – | 2.91
20 K | – | 4.1
25 K | – | 5.02
30 K | – | 5.79
35 K | – | 6.5
40 K | – | 7.21
45 K | – | 7.95
50 K | – | 8.75
55 K | – | 9.61
60 K | – | 10.56
65 K | – | 11.58
70 K | – | 12.68
75 K | – | 13.85
80 K | – | 15.1
85 K | – | 16.42
90 K | – | 17.81
95 K | – | 19.26
100 K | – | 20.77
105 K | – | 22.33
110 K | – | 23.96
120 K | – | 27.36
130 K | – | 30.94
140 K | – | 34.68
150 K | – | 38.55
160 K | – | 42.52
170 K | – | 46.6
180 K | – | 50.73
190 K | – | 54.92
200 K | – | 59.14
210 K | – | 63.39
220 K | – | 67.65
230 K | – | 71.9
240 K | – | 76.15
250 K | – | 80.37
260 K | – | 84.57
270 K | – | 88.74
280 K | – | 92.88
290 K | – | 97
298.15 K | – | 100.31
300 K | – | 101.06
310 K | – | 105.07
320 K | – | 109.05
330 K | – | 112.99
340 K | – | 116.88
350 K | – | 120.72
360 K | – | 124.52
370 K | – | 128.28
380 K | – | 131.99
390 K | – | 135.65
Crystal 2, Adiabatic calorimetry | 9 | –
